The results in this text go back to patent publication US20100015058A1, “RADIOLABELED BBN-RGD HETERODIMERS FOR CANCER TARGETING” (STANFORD UNIVERSITY, priority 2008, published 2010).

In one data set the target is T1, integrin αvβ3 (Homo sapiens, UniProt P05106+P06756).
T1 construct: Experiments were performed on U87MG human glioma cells expressing integrin αvβ3 as previously described; endogenous in cells; host or cells: U87MG human glioblastoma (glioma) cells
Put plainly: Competitive cell-binding assay with ^125I-c(RGDyK) on U87MG cells. Conditions: FIG. 14A.

In a further data set the target is T2, GRPR (Homo sapiens, UniProt P30550).
T2 construct: Experiments were performed on GRPR-expressing PC-3 cells following our previously described procedure; endogenous in cells; host or cells: PC-3 human prostate carcinoma cells
As to the kind of experiment: Displacement cell-binding assay with ^125I-[Tyr4]BBN on PC-3 cells. As for the experimental part:
Experiments were performed with triplicate samples.
BBN as the radioligand. […] Experiments were performed twice with triplicate samples.

Data set [1] in a line: Octanol/water partition coefficient. Conditions: octanol / PBS pH 7.4, room temperature. It is filed as physicochemical. On the procedure:
The mixture was vigorously vortexed for 1 min at room temperature. After centrifugation at 12,500 rpm for 5 min in an Eppendorf microcentrifuge (model 5415R; Brinkman), 200-μL aliquots of both layers were measured using a 7-counter (Packard Instruments). The experiment was performed in triplicate.

A further data set concerns PC-3 tumor cells. As to the kind of experiment: Cell uptake assay on PC-3 tumor cells. It is filed as cell-based, human. The note with it: PC-3 cells, 37° C., within 30 min of incubation, plateau afterward. On the procedure:
In the cell uptake experiment, PC-3 cells were seeded into 12-well plates at a density of 5×10^5 cells per well for overnight incubation. Cells were rinsed 3 times with phosphate-buffered saline (PBS), followed by the addition of ^18F-FB-RGD, ^18F-FB-BBN, or ^18F-BBN-RGD to the cultured wells in triplicate (about 2 μCi/well). […] The cell lysate was collected in measurement tubes for counting. The cell uptake was normalized in terms of added radioactivity.
The cell uptake studies were performed as we have previously described with some modifications (Chen et al., Mol Imaging Biol. (2004) […]; Cai et al., (2006) J. Nuc. Med. 47: 1172-1180, incorporated herein by reference in their entireties). Briefly, PC-3 cells were seeded into 12-well plates at a density of 5×10^5 cells per well and incubated (about 18 kBq/well) with ^68Ga-labeled tracers at 37° C. for 15, 30, 60, and 120 min. Tumor cells were then washed three times with chilled PBS and harvested by trypsinization with 0.25% trypsin/0.02% EDTA (Invitrogen). The cell suspensions were collected and measured in a y counter (Packard, Meriden, Conn.). The cell uptake was expressed as the percent added dose (% AD) after decay correction. Experiments were performed twice with triplicate wells. For efflux studies, ^68Ga-labeled tracers (about 18 kBq/well) were first incubated with PC-3 cells in 12-well plates for 1 h at 37° C. to allow internalization. Then cells were washed twice with PBS, and incubated with cell culture medium for 15, 30, and 60 min. After washing three times with PBS, cells were harvested by trypsinization with 0.25% trypsin/0.02% EDTA. The cell suspensions were collected and measured in a γ counter. Experiments were performed twice with triplicate wells. Data are expressed as percent added dose after decay correction.

A short description of data set [2]: Small-animal PET of MDA-MB-435 tumor-bearing mice. Conditions: female, athymic nude, mouse, in vivo, iv, total radioactivity; 30 min p.i., BBN tracer control study, FIG. 44B; read-out: MDA-MB-435 tumor uptake.
The nature of data set [3]: Small-animal PET of PC-3 tumor-bearing mice. Conditions: male, athymic nude, mouse, in vivo, iv, 3.7 MBq, total radioactivity, PC-3 tumor uptake, PET ROI. As for the experimental part: (a) PET scans and image analysis were performed using a micro-PET R4 rodent model scanner (Siemens Medical Solutions) as reported by Li et al., J. Nucl. Med. (2007) 48: 1162-1171 and Wu et al., J Nucl. Med. (2005) 46: 1707-1718, both of which are incorporated herein by reference in their entireties). […] Five-minute static PET images were then acquired at 0.5, 1, and 2 h after injection. The images were reconstructed by a 2-dimensional ordered-subsets expectation maximum (OSEM) algorithm. No attenuation or scatter correction was applied. […] The 5-min static PET scans were then acquired at 1 hr after injection. For each small-animal PET scan, regions of interest (ROIs) were drawn over the tumor, normal tissue, and major organs by using vendor software (ASI Pro 5.2.4.0) on decay-corrected whole-body coronal images. The average radioactivity concentration (accumulation) within a tumor or an organ was obtained from mean pixel values within the multiple ROI volume, which were converted to counts/mL/min using a conversion factor. Assuming a tissue density of 1 g/mL, the ROIs were converted to counts/g/min, and then divided by the administered activity to obtain an imaging ROI-derived percentage injected dose per gram of tissue (% ID/g).
For dynamic PET, 30-min scans (1×30 s, 4×1 min, 1×1.5 min, 4×2 min, 5×3 min; total 15 frames) were started 1 min after injection, and two 5-min static PET images were also acquired at 1 h and 2 h after injection. […] For each small-animal PET scan, regions of interest (ROIs) were drawn over the tumor, normal tissue, and major organs using vendor software ASI Pro 5.2.4.0 on decay-corrected whole-body coronal images. The maximum radioactivity concentrations (accumulation) within a tumor or an organ were obtained from mean pixel values within the multiple ROI volume, and were converted to megabecquerels per milliliter per minute using a conversion factor. These values were then divided by the administered activity to obtain (assuming a tissue density of 1 g/ml) an image ROI-derived percent injected dose per gram (% ID/g).
The images were reconstructed using a 2-dimensional ordered-subsets expectation maximum algorithm without attenuation or scatter correction.
For each small-animal PET scan, regions of interest were drawn over each tumor, over normal tissue, and over major organs using vendor software (ASI Pro, version 5.2.4.0) on decay-corrected whole-body coronal images. The maximum radioactivity concentration (accumulation) within a tumor or an organ was obtained from the mean pixel values within the multiple-region-of-interest volume, which were converted to MBq/mL/min using a conversion factor. Assuming a tissue density of 1 g/mL, the regions of interest were converted to MBq/g/min and then divided by the administered activity to obtain an imaging region-of-interest-derived percentage injected dose (% ID)/g.

Another data set concerns DU-145 tumor. The format is in vivo, mice. The note with it: integrin αvβ3-positive, low GRPR-expressing tumor. On the procedure:
The PC-3 and DU-145 human prostate carcinoma cell lines were purchased from American Type Culture Collection. PC-3 cells were grown in F-12K nutrient mixture (Kaighn's modification) (Invitrogen Corp.), and DU-145 cells were grown in minimum essential medium (Eagle) mixture supplemented with 10% (v/v) fetal bovine serum (Invitrogen) at 37° C. with 5% CO2. The PC-3 and DU-145 tumor models were generated by subcutaneous injection of 5×10^6 tumor cells into the front flank of male athymic nude mice (Harlan).
No attenuation or scatter correction was applied.

For the compound `CSCC[C@H](NC(=O)[C@H](CC(C)C)NC(=O)[C@H](Cc1c[nH]cn1)NC(=O)CNC(=O)[C@@H](NC(=O)[C@H](C)NC(=O)[C@H](Cc1c[nH]c2ccccc12)NC(=O)[C@H](CCC(N)=O)NC(=O)CCCCCN)C(C)C)C(N)=O` [Aca-BBN(7-14)], the “binding inhibition of ^125I-c(RGDyK)” value at integrin αvβ3 is reported as “did not show significant binding inhibition”.

Regarding `CSCC[C@H](NC(=O)[C@H](CC(C)C)NC(=O)[C@H](Cc1c[nH]cn1)NC(=O)CNC(=O)[C@@H](NC(=O)[C@H](C)NC(=O)[C@H](Cc1c[nH]c2ccccc12)NC(=O)[C@H](CCC(N)=O)NC(=O)CCCCCNC(=O)CC[C@H](NC(=O)COCCOCCOCCN)C(=O)NCCCC[C@@H]1NC(=O)[C@@H](Cc2ccc(O)cc2)NC(=O)[C@H](CC(=O)O)NC(=O)CNC(=O)[C@H](CCCNC(=N)N)NC1=O)C(C)C)C(N)=O` [PEG3-Glu-RGD-BBN], the IC50 – broadly, the midpoint of a concentration-inhibition curve – on GRPR (FIG. 34B, PEG3-Glu-RGD-BBN series, read-out: IC50, displacement of ^125I-[Tyr4]BBN from PC-3 cells) was 85.4 ± 1.95 nM.

For the compound `CSCC[C@H](NC(=O)[C@H](CC(C)C)NC(=O)[C@H](Cc1c[nH]cn1)NC(=O)CNC(=O)[C@@H](NC(=O)[C@H](C)NC(=O)[C@H](Cc1c[nH]c2ccccc12)NC(=O)[C@H](CCC(N)=O)NC(=O)CCCCCNC(=O)c1ccc(F)cc1)C(C)C)C(N)=O` [^18F-FB-BBN, reference compound], the logP (in general, a log measure of how a compound divides between an organic and an aqueous phase) in data set [1] turned out to be 1.49 ± 0.02. In addition, in the data set on PC-3 tumor cells, the cell uptake entry is given as “about 7%”. Besides, the values for the tissue uptake at 0.5 h in data set [2] and in data set [3] (30 min after injection of 3.7 MBq) were 0.45 ± 0.11 %ID/g and 0.63 ± 0.16 %ID/g, respectively. In addition, the tissue uptake at 1 h in data set [3] (60 min after injection of 3.7 MBq, no blocking) was found to be 0.44 ± 0.1 %ID/g. Also, the tissue uptake at 2 h in data set [3] (120 min after injection of 3.7 MBq) worked out at 0.29 ± 0.08 %ID/g. Besides, the “detection of the DU-145 tumor by PET” value with DU-145 tumor was “unable to detect the DU-145 tumor”.

Take `N=C(N)NCCC[C@@H]1NC(=O)[C@H](CCCCN)NC(=O)[C@@H](Cc2ccc(O)cc2)NC(=O)[C@H](CC(=O)O)NC(=O)CNC1=O` [c(RGDyK), cyclo(Arg-Gly-Asp-D-Tyr-Lys), reference compound]: the “binding inhibition of ^125I-[Tyr4]BBN with GRPR” value on GRPR (PC-3 cells, FIG. 14B) is reported as “did not show significant binding inhibition”.
